One data set has as its system HEK-FAP cells. As to the kind of experiment: Fluorescence microscopy of cellular internalization and retention in HEK-FAP cells. The format is cell-based, human. The conditions noted are these: 5 nM for 1 h at 37 °C, then compound-free medium up to 72 h. How it is done: HEK-FAP cells were seeded on chamber slides (ibidi) and incubated with 5 nM of AF488-labeled FAP-2286 or FAPI-46 for 1 h at 37 °C. Cells were then washed and further incubated for various timepoints. Cell nuclei were stained with 1 µg/mL Hoechst 33342 dye. Lysosomes were stained using LysoTracker Deep Red (Thermo Fisher Scientific). Images were acquired by using the BZ X800E fluorescence microscope (Keyence) at 40 × magnification.
For fluorescence microscopy assay, HEK-FAP cells were seeded in Poly-D-Lysine-coated 8-well chamber slides at 1 x 10^5 cells per well and incubated for 3 days at 37°C, 5% CO2 in a humified incubator. Attached cells were incubated for 1 hour with 5 nM AF488-labeled FAP-2286 or FAPI-46 in incubation buffer at 37°C. For visualization of lysosomes and late endosomes, cells were stained with LysoTracker DeepRed (Thermo Fisher) for 30 minutes at 37 °C.
Cells were washed three times and incubation buffer was added. Following various incubation periods, cells were washed with HBSS and incubated for 5 min with 1 µg/mL Hoechst 33342 dye for nuclei counterstaining at room temperature.
Fluorescence images were acquired by using a Keyence BZ-X800E fluorescence microscope with 40x magnification.

In the next data set the test system is HEK-FAP xenograft tumors. Nature of the data set: SPECT/CT biodistribution of 111In-labeled tracers in HEK-FAP tumor-bearing mice. In kind it is in vivo, mouse. Particulars: every 24 h; HEK-FAP mouse tumor model; 111In-FAPI-04 (Supplementary Fig. S6). How it is done: (§1) HEK-FAP cell line was generated using the vector pTAR to insert FAP complementary DNA by recombinase-mediated cassette exchange into the pre-tagged HEK293 cells (InSCREENeX). For in vivo HEK-FAP studies, female nude or SCID beige mice (Charles River Laboratories) were subcutaneously implanted with 5 × 10^6 HEK-FAP cells in 150 µL serum-free media:Matrigel (1:1) (Corning). For the patient-derived xenograft (PDX) efficacy study, female NMRI nu/nu mice (Janvier Labs) were subcutaneously implanted with Sarc4809 fragments (Experimental Pharmacology & Oncology Berlin-Buch). All animal experiments were carried out under licenses approved by the respective authorities and in compliance with guidelines on animal welfare.
(§2) Thirty megabecquerels (30 MBq/nmol) ^111In-FAP-2286 (n = 9) or ^111In-FAPI-04 (n = 6) was injected intravenously (IV) into HEK-FAP tumor-bearing mice and the distribution of the radiotracers was assessed using the NanoSPECT/computed tomography (CT) system (Mediso). For PET imaging, 10 MBq of ^68Ga-FAP-2286 or ^68Ga-FAPI-46 (10 MBq/nmol) was given IV into HEK-FAP tumor-bearing mice (n = 3) followed by PET/CT analysis using the nanoScan PET/CT system (Mediso). For SPECT imaging of ^177Lu-labeled FAP-2286 or ^177Lu-labeled FAPI-46, 30 MBq was administered IV (30 MBq/nmol; n = 3) and the distribution of the radiotracers was assessed using the nanoScan SPECT/CT system (Mediso).
(§3) The animal studies were conducted in different laboratories. ^111In-Imaging and efficacy studies using the HEK-FAP model and different doses of ^177Lu-FAP-2286 as well as the Sarc4809 PDX efficacy study took place at Berlin Experimental Imaging Center (BERIC, Germany). The Sarc4809 model was originally derived from a primary lesion of undifferentiated pleomorphic sarcoma. These studies were performed in either female swiss nude (Charles River Laboratories, France – ^111In-Imaging), NMRI nude (Janvier Labs, France – PDX efficacy study) or SCID beige mice (Charles River Laboratories, Germany - ^111In-Imaging). ^68Ga-Imaging and comparative studies with ^177Lu labeled FAP-2286 and FAPI-46 were performed at Minerva Imaging ApS, Denmark using female athymic nude mice (Charles River Laboratories, Germany). For all experiments animals were ordered with an age of approximately 6 weeks. Animals were allowed an acclimatization period of at least one week prior to inoculation. Animals were housed in an animal room with 12 hours light and 12 hours darkness with free access to food and water. A maximum number of 5 animals were housed in the same cage, cages were equipped with nesting material and plastic or paper houses for hiding. Each cage was labeled with study ID, group and animal numbers and test compound. For efficacy studies animals were randomized according to tumor size. Animals were checked daily for any signs of illness or abnormal behavior. Main humane endpoints were defined as tumor volumes > 1500 mm^3, tumor burden > 10% of animal weight, body weight loss >15% and tumor ulceration. When reaching one of these criteria the animal was sacrificed by cervical dislocation. All animal experiments were approved either by the Regional Office for Health and Social Affairs Berlin (LAGeSo), Germany or the National Animal Experiments Inspectorate under the Ministry of Environment and Food of Denmark.
(§4) Imaging and image analysis were performed as described. During the scan, mice were kept under isoflurane anesthesia, and body temperature was maintained under warm air. The following acquisition parameters were used for the respective imaging modality.
(§5) For quantification, VivoQuant (InviCRO) was used to draw regions of interest (ROIs) in relevant tissues, with a ROI drawn over the left ventricle of the heart to serve as blood pool surrogate. […]

The next data set has as its system neoplastic lesions. Also on record: method as in PMID 34168013. The conditions noted are these: first-in-human experience of 11 patients ref 51; cited from earlier work.
For another data set, the system named is HEK-FAP xenografts. As to the kind of experiment: SPECT/CT biodistribution and tumor dosimetry of 177Lu-labeled tracers in HEK-FAP tumor-bearing mice. In kind it is in vivo, mouse. How it is done: as §1, §2, §3, §4, §5
Experiment in data set [1]: as above
The format is in vivo, mouse. Particulars: mouse, in vivo, iv, 30 MBq IV, HEK-FAP mice; for tissue uptake at 72 h: 72 h p.i. Here is the method: as §1, §2, §3, §4, §5

The subject of the next data set is Sarc4809 PDX. Nature of the data set: Efficacy study in the Sarc4809 sarcoma PDX model. The conditions noted are these: 30 MBq single IV dose, Sarc4809 mice. In kind it is in vivo, mouse. Here is the method:
as §1
A single dose of the indicated treatments was administered IV on day 0, with vehicle (saline), nonradioactive ^natLu-FAP-2286, 30 or 60 MBq ^177Lu-FAP-2286 (30 MBq/nmol and 60 MBq/nmol, respectively), or 30 MBq ^177Lu-FAPI-46 (30 MBq/nmol). Tumor length and width were measured by caliper, and tumor volume was calculated as 0.5 × (length × width^2). Tumor growth and body weight were monitored 3 times weekly. […]
Calculation of relative tumor volume. Relative tumor volume (RTV as %) is calculated according to the following formula: RTV = (Tᵢ/ T0) × 100, where Tᵢ is the tumor volume at day i and T0 is the tumor volume at day 0. […]

Where two headings read alike, the source gives them in different places.

Regarding `CCCCCC(=O)N[C@H]1CSCc2cc(CSCCNC(=O)CN3CCN(CC(=O)O)CCN(CC(=O)O)CCN(CC(=O)O)CC3)cc(c2)CSC[C@@H](C(=O)N[C@@H](CCCCNC(=O)c2ccc(-c3c4ccc(=N)c(S(=O)(=O)O)c-4oc4c(S(=O)(=O)O)c(N)ccc34)c(C(=O)O)c2)C(N)=O)NC(=O)[C@H](Cc2ccccc2)NC(=O)[C@H](CCC(N)=O)NC(=O)[C@H]([C@@H](C)O)NC(=O)[C@@H]2CCCN2C(=O)[C@@H]2CCCN2C1=O` [AF488-FAP-2286], in the data set on HEK-FAP cells, the “cellular retention by fluorescence microscopy” value is “retained in HEK-FAP cells and secluded in endosomes out to 72 h”.

Take `N#C[C@@H]1CC(F)(F)CN1C(=O)CNC(=O)c1ccnc2ccc(OCCCN3CCN(C(=O)CN4CCN(CC(=O)O)CCN(CC(=O)O)CCN(CC(=O)O)CC4)CC3)cc12` [FAPI-04, reference compound]: in the data set with HEK-FAP xenograft tumors, the tumor clearance rate entry was “approximately 50%”.

Turning to `CCCCCC(=O)N[C@H]1CSCc2cc(CSCCNC(=O)CN3CCN(CC(=O)O)CCN(CC(=O)O)CCN(CC(=O)O)CC3)cc(c2)CSC[C@@H](C(=O)O)NC(=O)[C@H](Cc2ccccc2)NC(=O)[C@H](CCC(N)=O)NC(=O)[C@H]([C@@H](C)O)NC(=O)[C@@H]2CCCN2C(=O)[C@@H]2CCCN2C1=O` [^177Lu-FAP-2286, metal not drawn], the “SPECT/CT biodistribution in patients” value in the data set with neoplastic lesions was “significant tumor uptake and long retention”. The compound further returned a tumor retention in the data set with HEK-FAP xenografts (HEK-FAP mouse model, SPECT/CT image quantification) of at least 72 h. The tumor absorbed dose with HEK-FAP xenografts (HEK-FAP tumor self-dose) was 2.8 Gy/MBq. The “time-integrated activity coefficient (TIAC), tumor” value in the data set on HEK-FAP xenografts (HEK-FAP tumor, calculated from SPECT/CT, extrapolated beyond 72 h) is on record as 11.2 MBq*h/MBq. Moreover, the tissue uptake at 3 h in data set [1] (3 h after injection, read-out: kidney accumulation) is 2.2 %ID/g; in data set [1] (3 h p.i., n=3, read-out: tumor uptake) it was 21.1 %ID/g. The tissue uptake at 72 h worked out at 16.4 %ID/g in data set [1] (n=3, read-out: tumor uptake) and 0.6 %ID/g in data set [1] (read-out: kidney accumulation). For the same compound, the “Max. BWL, Day 2” value with Sarc4809 PDX is listed as 3%.

The values are drawn from PMC9399058, “Preclinical evaluation of FAP-2286 for fibroblast activation protein targeted radionuclide imaging and therapy” (European Journal of Nuclear Medicine and Molecular Imaging, 2022).
